Experimental data: patent US9290485B2, “N-((6-amino-pyridin-3-yl)methyl)-heteroaryl-carboxamides” (NOVARTIS AG, priority 2010, dated 2016)

What follows are compounds tested against T1, human plasma kallikrein (Homo sapiens (Human), UniProt P03952) (assay: not given). Details: human plasma kallikrein 25 pM, substrate 0.5 uM, 1 hour pre-incubation at room temperature, read at t=60 min.
T1 sequence (P03952 whole entry, looked up): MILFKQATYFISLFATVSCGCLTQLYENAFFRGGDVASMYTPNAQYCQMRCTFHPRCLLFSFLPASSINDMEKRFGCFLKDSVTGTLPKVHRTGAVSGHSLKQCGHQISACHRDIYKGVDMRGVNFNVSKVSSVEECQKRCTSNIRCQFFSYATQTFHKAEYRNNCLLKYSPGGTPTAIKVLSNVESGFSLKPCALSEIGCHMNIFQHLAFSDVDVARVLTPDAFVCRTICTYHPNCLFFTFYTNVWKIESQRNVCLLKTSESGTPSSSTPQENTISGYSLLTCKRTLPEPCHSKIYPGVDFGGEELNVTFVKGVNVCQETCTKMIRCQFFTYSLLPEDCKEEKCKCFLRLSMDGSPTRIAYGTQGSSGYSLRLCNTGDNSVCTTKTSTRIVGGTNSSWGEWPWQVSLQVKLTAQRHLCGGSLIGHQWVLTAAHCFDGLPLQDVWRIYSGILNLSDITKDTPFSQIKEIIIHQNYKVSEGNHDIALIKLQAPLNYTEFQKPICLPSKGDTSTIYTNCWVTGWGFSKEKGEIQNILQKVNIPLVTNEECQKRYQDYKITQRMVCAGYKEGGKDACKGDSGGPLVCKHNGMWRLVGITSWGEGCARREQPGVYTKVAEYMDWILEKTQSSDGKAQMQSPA
T1 sequence (P03952 whole entry partner, looked up): as the sequence (P03952 whole entry, looked up) above

Question: Which IC50 does the source give for `Cc1cc(N)nc(C)c1CNC(=O)c1cn(Cc2ccc3c(c2)c(C)c(C)n3C)nn1` [Example 166, N-((6-amino-2,4-dimethylpyridin-3-yl)methyl)-1-((1,2,3-trimethyl-1H-indol-5-yl)methyl)-1H-1,2,3-triazole-4-carboxamide] here?
Answer: 0.2 nM

Question: `Cc1nc(N)cc(Cl)c1CNC(=O)c1cnn(Cc2ccc(Cn3ccccc3=O)cc2)c1` [Example 167, N-((6-Amino-4-chloro-2-methylpyridin-3-yl)methyl)-1-(4-((2-oxopyridin-1(2H)-yl)methyl)benzyl)-1H-pyrazole-4-carboxamide] was tested. Which IC50 did it give?
Answer: 0.2 nM

Question: `Cc1cc(N)nc(C)c1CNC(=O)c1cnn(Cc2ccc3c(c2)cc(C)n3C)c1` [Example 168, N-((6-Amino-2,4-dimethylpyridin-3-yl)methyl)-1-((1,2-dimethyl-1H-indol-5-yl)methyl)-1H-pyrazole-4-carboxamide] was tested. Which IC50 did it give?
Answer: 0.1 nM

Question: `Cc1cn2cc(Cn3cc(C(=O)NCc4c(C)cc(N)nc4C)cn3)ccc2n1` [Example 169, N-((6-amino-2,4-dimethylpyridin-3-yl)methyl)-1-((2-methylimidazo[1,2-a]pyridin-6-yl)methyl)-1H-pyrazole-4-carboxamide] was tested. Which IC50 did it give?
Answer: 3 nM

Question: Which IC50 does the source give for `Cc1ccc2cc(Cc3nc(C(=O)NCc4c(C)cc(N)nc4C)co3)ccc2n1` [Example 170, N-((6-amino-2,4-dimethylpyridin-3-yl)methyl)-2-((2-methylquinolin-6-yl)methyl)oxazole-4-carboxamide] here?
Answer: 9.7 nM

Question: How did the IC50 turn out when `Cc1cc(N)nc(C)c1CNC(=O)c1cnn(Cc2cc3ccsc3c(N)n2)c1` [Example 171, N-((6-Amino-2,4-dimethylpyridin-3-yl)methyl)-1-((7-aminothieno[2,3-c]pyridin-5-yl)methyl)-1H-pyrazole-4-carboxamide] was run?
Answer: 26 nM

Question: With `Cc1nc(N)cc(Cl)c1CNC(=O)c1cnn(Cc2ccc3ccccc3c2)c1` [Example 172, N-((6-amino-4-chloro-2-methylpyridin-3-yl)methyl)-1-(naphthalen-2-ylmethyl)-1H-pyrazole-4-carboxamide] as the compound, how does the IC50 read?
Answer: 60 nM

Question: How did the IC50 turn out when `Cc1cc(N)nc(C)c1CNC(=O)c1cnn(Cc2ccc3c(c2)CCS3(=O)=O)c1` [Example 174, N-((6-amino-2,4-dimethylpyridin-3-yl)methyl)-1-((1,1-dioxido-2,3-dihydrobenzo[b]thiophen-5-yl)methyl)-1H-pyrazole-4-carboxamide] was run?
Answer: 75 nM

Question: `Cc1ccc2cc(Cn3cc(C(=O)NCc4c(Cl)cc(N)nc4C)nn3)ccc2n1` [Example 175, N-((6-Amino-4-chloro-2-methylpyridin-3-yl)methyl)-1-((2-methylquinolin-6-yl)methyl)-1H-1,2,3-triazole-4-carboxamide] was tested. Which IC50 did it give?
Answer: 61 nM

Question: How did the IC50 turn out when `Cc1cc(N)nc(C)c1CNC(=O)c1ccn(S(=O)(=O)c2ccccc2)c1C` [Example 176, N-((6-Amino-2,4-dimethylpyridin-3-yl)methyl)-2-methyl-1-(phenylsulfonyl)-1H-pyrrole-3-carboxamide] was run?
Answer: 45000 nM

Question: For `Cc1cc(N)nc(C)c1CNC(=O)c1cn(Cc2ncccn2)nn1` [Example 178, N-((6-Amino-2,4-dimethylpyridin-3-yl)methyl)-1-(pyrimidin-2-ylmethyl)-1H-1,2,3-triazole-4-carboxamide], which IC50 is on record?
Answer: 67300 nM

Question: With `Cc1cc(N)nc(C)c1CNC(=O)c1ccn(Cc2ccccc2)c1C` [Example 179, N-((6-Amino-2,4-dimethylpyridin-3-yl)methyl)-1-benzyl-2-methyl-1H-pyrrole-3-carboxamide] as the compound, how does the IC50 read?
Answer: 85800 nM

Question: Which IC50 does the source give for `Cc1nc(N)cc(OC(F)F)c1CNC(=O)c1cnn(Cc2ccccc2)c1` [Example 180, N-((6-Amino-4-(difluoromethoxy)-2-methylpyridin-3-yl)methyl)-1-benzyl-1H-pyrazole-4-carboxamide] here?
Answer: > 100000 nM

Question: For `Cc1nc(N)cc(Br)c1CNC(=O)c1cnn(Cc2ccccc2)c1` [Example 181, N-((6-Amino-4-bromo-2-methylpyridin-3-yl)methyl)-1-benzyl-1H-pyrazole-4-carboxamide], which IC50 is on record?
Answer: 37000 nM

Question: Which IC50 does the source give for `Nc1ccc(CNC(=O)c2cnn(Cc3ccccc3)c2)cn1` [Example 182, N-((6-Aminopyridin-3-yl)methyl)-1-benzyl-1H-pyrazole-4-carboxamide] here?
Answer: > 100000 nM

Question: `Cc1cc(N)nc(C)c1CNC(=O)c1c(C)c(C)n(S(=O)(=O)c2ccccc2)c1C` [Example 183, N-((6-Amino-2,4-dimethylpyridin-3-yl)methyl)-2,4,5-trimethyl-1-(Phenylsulfonyl)-1H-pyrrole-3-carboxamide] was tested. Which IC50 did it give?
Answer: > 100000 nM

The compounds below were run against T1, human plasma kallikrein (assay: biochemical). Details: not given.

Question: With `Cc1cc(N)nc(C)c1CNC(=O)c1cnn(Cc2cccc(CO)n2)c1` [Example 99, N-((6-amino-2,4-dimethylpyridin-3-yl)methyl)-1-((6-(hydroxymethyl)pyridin-2-yl)methyl)-1H-pyrazole-4-carboxamide] as the compound, how does the IC50 read?
Answer: 7000 nM

Question: How did the IC50 turn out when `Cc1cc(N)nc(C)c1CNC(=O)c1cnn(Cc2nc3ccccc3nc2C)c1` [Example 104, N-((6-amino-2,4-dimethylpyridin-3-yl)methyl)-1-((3-methylquinoxalin-2-yl)methyl)-1H-pyrazole-4-carboxamide] was run?
Answer: 113 nM

Question: How did the IC50 turn out when `Cc1cc(N)nc(C)c1CNC(=O)c1cnn(Cc2ccc3ncc(Cl)cc3c2)c1` [Example 173, N-((6-Amino-2,4-dimethylpyridin-3-yl)methyl)-1-((3-chloroquinolin-6-yl)methyl)-1H-pyrazole-4-carboxamide] was run?
Answer: 0.4 nM

Same assay, conditions: read-out: % inhibition at 100 μM

Question: Which inhibition at 100 µM does the source give for `Nc1ccc(CNC(=O)c2cnn(Cc3ccccc3)c2)cn1` [Example 182, N-((6-Aminopyridin-3-yl)methyl)-1-benzyl-1H-pyrazole-4-carboxamide] here?
Answer: 38%

Question: With `Cc1cc(N)nc(C)c1CNC(=O)c1c(C)c(C)n(S(=O)(=O)c2ccccc2)c1C` [Example 183, N-((6-Amino-2,4-dimethylpyridin-3-yl)methyl)-2,4,5-trimethyl-1-(Phenylsulfonyl)-1H-pyrrole-3-carboxamide] as the compound, how does the inhibition at 100 µM read?
Answer: 39%
